Each block holds one molecule with its values, some of them ahead of it.
Experiments:
[1] = Amorphous or crystalline state by powder X-ray diffraction (XRPD); assay type: physicochemical; details: for XRPD 1 week 40/75 open: 1 week 40° C. 75% RH open; for XRPD initial: freshly prepared
Procedure: Amorphous or crystalline state of freshly prepared spray dried dispersions described in Example 2 was assessed by Powder X-ray diffraction (XRPD). The same analysis was repeated after 1 week storage at 40° C. and 75% relative humidity in open conditions. XRPD patterns were obtained with Rigaku MiniFlex 600 X-Ray diffractometer operating with a copper anode ([…]; Kα2=1.54439 Å), generator set at 45 kV and 15 mA, in 2-theta range 3-40° 2θ, scanned at a rate of 2.5° 2θ per minute in continuous scanning mode, and using a D/teX Ultra high speed detector.

[2] = Non-sink in vitro dissolution, micro-centrifuge method; assay type: physicochemical; details: PBS pH 6.5 with 0.5 wt % SIF; for Dissolution C90 min / Dissolution C20 h: 37° C., theoretical maximum 1000 μg/mL; for Dissolution C90 min: 90 min; for Dissolution C20 h: 1200 min
Procedure: Dissolution of spray dried materials of belinostat has been tested in vitro, in non-sink conditions, in order to evaluate the ability of formulations to achieve supersaturation and sustainability of supersaturation relative to crystalline drug.
Dissolution was assessed using micro-centrifuge method (Curatolo et al. Pharm Res 2009:26(6):1419-1431). Micro-centrifuge dissolution method consisted of introducing a 1.8 mg equivalent belinostat as ASD into an empty micro-centrifuge tube and add 1.8 mL total volume dissolution media (PBS pH 6.5 with 0.5 wt % Simulated Intestinal Fluid) to achieve a theoretical maximum belinostat concentration in solution of 1000 μg/mL. For some formulations (marked with* in Table 2), ASDs were first exposed in pH 2.0 gastric media at 2000 μg/mL for 30 min before to be transferred to the PBS pH 6.5 with 0.5 wt % Simulated Intestinal Fluid at a final theoretical maximum belinostat concentration in solution of 1000 μg/mL. Tubes were placed at 37° C. Aliquot (50 μL) were taken from supernatant after centrifugation 15 800 g for 1 min at each time point (5, 10, 20, 45, 90 and 1200 minutes). Between each time point, solids in the centrifuge tube were resuspended by mixing the sample continuously on the vortex mixer for 30 s and the tube was placed back at 37° C. Aliquot samples were diluted using acetonitrile and drug concentration was determined by HPLC.

[3] = Chemical stability: impurities by HPLC, initial and after 1 week 40° C./75% RH; assay type: physicochemical
Procedure: After a secondary drying overnight at 40° C. 15% RH in a convection tray dryer, the different ASD were characterized for physical stability (XRPD, Tg versus Relative humidity), chemical stability (impurity by HPLC after 1 week 40° C./75% RH) and in vitro dissolution.
Purity of each batch of ASD was tested by HPLC analysis on sample just after preparation and after one week storage in accelerated stability conditions: 40° C./75% RH open or closed. In closed conditions, ASDs were placed in closed bottles (heat induction seal) containing 1 g SORB-IT desiccant canister.
HPLC-analysis was performed using an Agilent 1100 or 1200 system with binary or quaternary pump, a diode array detector, a refrigerated autosampler, and column oven. Data analysis was performed using Empower 3 software. The column used was Zorbax Bonus RP 4.6×150 mm (3.5 μm). Acetonitrile/20 mM Potassium phosphate buffer pH 3.0 was used as mobile phase with a gradient concentration at a flow rate of 1.0 mL/min; UV detection was used at a wavelength of 220 nm.

[4] = Glass transition temperature (Tg) by modulated DSC; assay type: physicochemical
Procedure: To also evaluate the physical stability of prepared ASDs, glass transition temperature (Tg) was determined at two relative humidity (RH) conditions (<5% and 75% RH) by modulated differential scanning calorimetry (m-DSC).
DSC curves were recorded using a TA Instruments Q2000 differential scanning calorimeter. Samples were heated under nitrogen flow from 0 to 200° C. at 2.5° C.±1.5° C./min in non-hermetically sealed pan for <5% RH analysis or from 0 to 130° C. at 2.5° C.±1.5° C./80 sec in hermetically sealed pan for 75% RH analysis.

[5] = vorinostat: phase I trial; cited from earlier work
[6] = cited from earlier work
[7] = above pH 8.5; cited from earlier work
[8] = cited from earlier work; remark: listed apart in the source
[9] = 1 week 40° C./75% RH closed, desiccant

XRPD 1 week 40/75 open [1]: Crystalline | XRPD initial [1]: Crystalline | Dissolution C90 min [2]: 270 µg/mL | Dissolution C20 h [2]: 310 µg/mL | Bel Acid, Initial ([3]; just after preparation): Bel Acid <0.05 area % | Total imp, Initial ([3]; just after preparation): Total imp <0.05 area %
Structure (SMILES): O=C(/C=C/c1cccc(S(=O)(=O)Nc2ccccc2)c1)NO [Formulation 1]

XRPD 1 week 40/75 open [1]: Crystalline | XRPD initial [1]: Partially crystalline | physical state upon storage (in words) ([1]; upon storage): undergoes recrystallization upon storage | Observation during dissolution [2]: Recrystallization | Dissolution C90 min [2]: 363 µg/mL | Dissolution C20 h [2]: 387 µg/mL | Bel Acid, 1 week 40/75 closed [3, 9]: Bel Acid 0.10 area % | Bel Dimer, 1 week 40/75 closed [3, 9]: Bel Dimer 1.34 area % | Total imp, 1 week 40/75 closed [3, 9]: Total imp 1.49 area % | Bel Acid, 1 week 40/75 open ([3]; 1 week 40° C./75% RH open): Bel Acid 0.10 area % | Bel Dimer, 1 week 40/75 open ([3]; 1 week 40° C./75% RH open): Bel Dimer 0.25 area % | Observation on storage 1 week 40/75 open ([3]; 1 week 40° C./75% RH open): Recrystallization | Total imp, 1 week 40/75 open ([3]; 1 week 40° C./75% RH open): Total imp 0.42 area % | Bel Acid, Initial ([3]; just after preparation): Bel Acid 0.05 area % | Bel Dimer, Initial ([3]; just after preparation): Bel Dimer 0.48 area % | Total imp, Initial ([3]; just after preparation): Total imp 0.59 area % | Tg <5% RH ([4]; <5% RH, m-DSC): 53 °C | glass transition temperature (Tg) ([4]; amorphous belinostat without polymer): about 53 °C
Structure (SMILES): O=C(/C=C/c1cccc(S(=O)(=O)Nc2ccccc2)c1)NO [Formulation 2]

Structure (SMILES): O=C(CCCCCCC(=O)Nc1ccccc1)NO [Vorinostat]
absolute oral bioavailability [5]: 43% | permeability (in words) [6]: moderate permeability

Structure (SMILES): O=C(/C=C/c1cccc(S(=O)(=O)Nc2ccccc2)c1)NO [belinostat, (2E)-N-hydroxy-3-[3-(phenylsulfamoyl)phenyl]prop-2-enamide]
chemical stability in liquid solution [7]: poor chemical stability

Structure (SMILES): CC(O)C(=O)O.Cc1[nH]c2ccccc2c1CCNCc1ccc(/C=C/C(=O)NO)cc1 [panobinostat lactate]
aqueous solubility, maximum ([8]; pH 2 or 3): ~5000 µg/mL | aqueous solubility at neutral pH ([8]; pH 6.8): 0.3 mg/mL | aqueous solubility ([8]; pH 7.6): 70 µg/mL | solubility in water (in words) ([8]; water): slightly soluble in water | absolute oral bioavailability [5]: approximately 21% | permeability (in words) [6]: highly permeable
